These are literature values, as cited in patent US20040089561A1, “Method and package for storing a pressurized container containing a drug” (priority 1999, published 2004).

SMILES strings stand for the structures.

The conditions of the series: water in the propellant.

On to `FC(F)(Cl)C(F)(F)Cl` [CFC 114], for which the maximum water solubility result is on record as “about 130 ppm”.

As for `FC(F)(Cl)Cl` [CFC 12], the maximum water solubility result is on record as “about 130 ppm”.

Regarding `FCC(F)(F)F` [HFC 134a], the maximum water solubility result is recorded as “about 2200 ppm”.
